Starred links: 1 amine or outer side, 2 acyl side, 3 side chain; linkers in the order of their positions; H or OH if unused. Positions of bridges follow the written chain, without caps; N, C: chain ends. Non-standard residues stand in square brackets, D forms with d. Residues, ends and D or L forms follow the SMILES beside them. *: point of attachment. Orn(4R-OH,5R-OCH2CH2NMe3+) = C[N+](C)(C)CCO[C@@H](N[*:3])[C@H](O)C[C@H](N[*:1])C(=O)[*:2]; pTerphenylCO(4''-OnC5H11) = CCCCCOc1ccc(-c2ccc(-c3ccc(C(=O)*)cc3)cc2)cc1; hTyr(3S-OH,4S-OH) = N[C@H](C(=O)O)[C@H](O)[C@@H](O)c1ccc(O)cc1; Pro(3S-OH,4S-Me) = C[C@H]1CN[C@H](C(=O)O)[C@H]1O; Hyp = O=C(O)[C@@H]1C[C@@H](O)CN1
Columns and labels:
[1] = Pharmacokinetic profile in female rats, 10 mg/kg IV and SC; conditions: rat, in vivo
From the text: The pharmacokinetic (PK) profile of CD101 in female rats (three per group) was characterized.

[2] = tested on: Aspergillus fumigatus (ATCC 13073); assay: Prophylaxis, neutropenic ICR mouse disseminated aspergillosis model, survival

With `CCCCCOc1ccc(-c2ccc(-c3ccc(C(=O)N[C@H]4C[C@@H](O)[C@@H](OCC[N+](C)(C)C)NC(=O)[C@@H]5[C@@H](O)[C@@H](C)CN5C(=O)[C@H]([C@@H](C)O)NC(=O)[C@H]([C@H](O)[C@@H](O)c5ccc(O)cc5)NC(=O)[C@@H]5C[C@@H](O)CN5C(=O)[C@H]([C@@H](C)O)NC4=O)cc3)cc2)cc1` [CD101] ({pTerphenylCO(4''-OnC5H11)}-[Orn(4R-OH,5R-OCH2CH2NMe3+)]T[Hyp][hTyr(3S-OH,4S-OH)]T[Pro(3S-OH,4S-Me)]; lactam 1-C) the Tmax ([1]; SC administration) was 8 to 24 h, the half-life ([1]; SC, read-out: t½ (converted)) was 48 h and the bioavailability ([1]; sc) was 97%. For the same molecule, the survival ([2]; CD101 SC 5 mg/kg, 14 days) was “increased survival when prophylaxis was given closer to challenge”, the “symptoms of infection (body weight, hunched posture, ruffled fur, immobility, hypothermia)” value ([2]; CD101 SC 5, 10 and 20 mg/kg on Day −5, −3 and −1) was “improved” and the survival ([2]; CD101 SC 10 and 20 mg/kg, any prophylactic treatment day, 14 days) was “All animals in the 10 and 20 mg/kg groups survived”. The 14-day survival ([2]; CD101 at 5 mg/kg SC administered one hour after infection) was “significant increase in the 14-day survival”, the survival ([2]; prophylaxis, Doses 0 mg/kg) was 100% and the survival ([2]; prophylaxis, single 5 mg/kg dose given up to 5 days prior to infection) was “improved survival depending on day given”.

Reference: patent US20190307843A1, “SINGLE DOSE METHODS FOR PREVENTING AND TREATING FUNGAL INFECTIONS” (Cidara Therapeutics, Inc., priority 2016, published 2019)
